Values of other authors in patent US6184241A, “Aspartic protease inhibitors” (Kansas State University Research Foundation, priority 1998, dated 2001).

Settings: heterocyclic ring

c1c[nH]cn1 [imidazole]
pKa: 6.0-7.0
